Source: patent US20100267743A1, “3-(PHENOXYPYRROLIDIN-3-YL-METHYL)HETEROARYL, 3-(PHENYLPYRROLIDIN-3-YLMETHOXY)HETEROARYL, AND 3-(HETEROARYLPYRROLIDIN-3-YLMETHOXY)HETEROARYL COMPOUNDS” (priority 2009, published 2010)

Tests used:
[1] = molecular target: SERT (Homo sapiens, UniProt P31645); assay: hSERT radioligand binding assay (3H-citalopram); parameters: expressed in transfected cells; host or cells: HEK-293; settings: hSERT membranes (HEK-293), 1.0 nM 3H-citalopram; for Ki: read-out: SERT pKi (converted)
Sequence of SERT (P31645 whole entry): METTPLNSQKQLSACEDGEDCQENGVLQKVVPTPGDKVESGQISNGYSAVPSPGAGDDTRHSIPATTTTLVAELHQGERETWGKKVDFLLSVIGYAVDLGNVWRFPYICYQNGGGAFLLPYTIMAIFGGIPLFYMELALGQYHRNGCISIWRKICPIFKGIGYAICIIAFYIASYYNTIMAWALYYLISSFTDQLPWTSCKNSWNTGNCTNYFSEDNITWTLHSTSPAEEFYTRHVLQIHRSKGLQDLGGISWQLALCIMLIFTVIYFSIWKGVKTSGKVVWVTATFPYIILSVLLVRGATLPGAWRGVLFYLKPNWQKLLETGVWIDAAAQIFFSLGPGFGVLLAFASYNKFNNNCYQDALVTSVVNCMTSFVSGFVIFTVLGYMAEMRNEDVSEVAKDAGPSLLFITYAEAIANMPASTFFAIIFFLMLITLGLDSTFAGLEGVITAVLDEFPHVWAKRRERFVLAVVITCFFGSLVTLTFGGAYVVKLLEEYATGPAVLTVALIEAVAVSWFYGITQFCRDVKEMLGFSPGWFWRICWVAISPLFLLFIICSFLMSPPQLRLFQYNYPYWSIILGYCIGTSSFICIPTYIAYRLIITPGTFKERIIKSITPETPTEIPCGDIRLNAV
Summary of the method: (§1)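 Membranes came from HEK-293 cells stably expressing hSERT (0.5 μg protein) or hNET (1 μg), with 3H-citalopram or 3H-nisoxetine respectively. Incubation was 60 min at 22° C in Tris buffer with 120 mM NaCl and 5 mM KCl, pH 7.4, followed by filtration and scintillation counting. pKi was derived by Cheng-Prusoff from IC50 and saturation-derived Kd.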

[2] = molecular target: NET (Homo sapiens, UniProt P23975); assay: hNET radioligand binding assay (3H-nisoxetine); parameters: expressed in transfected cells; host or cells: HEK-293; settings: hNET membranes (HEK-293), 1.0 nM 3H-nisoxetine; for Ki: read-out: NET pKi (converted)
Sequence of NET (P23975 whole entry): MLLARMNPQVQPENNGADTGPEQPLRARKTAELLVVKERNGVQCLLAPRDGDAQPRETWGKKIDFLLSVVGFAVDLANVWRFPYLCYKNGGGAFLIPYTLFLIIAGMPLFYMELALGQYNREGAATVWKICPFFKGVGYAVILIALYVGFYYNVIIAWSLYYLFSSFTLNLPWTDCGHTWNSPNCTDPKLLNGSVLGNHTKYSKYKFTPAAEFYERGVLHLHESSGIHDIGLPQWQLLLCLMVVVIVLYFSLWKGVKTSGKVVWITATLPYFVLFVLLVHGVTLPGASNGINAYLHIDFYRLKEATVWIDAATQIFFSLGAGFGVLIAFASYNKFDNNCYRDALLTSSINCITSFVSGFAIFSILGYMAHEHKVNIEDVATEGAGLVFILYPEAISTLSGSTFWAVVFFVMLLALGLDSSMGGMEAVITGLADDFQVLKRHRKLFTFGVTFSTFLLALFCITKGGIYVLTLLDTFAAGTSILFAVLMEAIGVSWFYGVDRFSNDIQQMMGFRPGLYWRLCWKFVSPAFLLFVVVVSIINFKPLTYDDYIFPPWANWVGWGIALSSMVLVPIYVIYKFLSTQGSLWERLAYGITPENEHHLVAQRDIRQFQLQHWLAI
Summary of the method: as §1

For Cc1cccc(C)c1O[C@@H](c1ncco1)[C@H]1CCNC1.O=C(O)C(F)(F)F [6-14], the “SERT pKi” value [1] was “≧7.0” and the “NET pKi” value [2] was “≧7.0”.
In the case of Fc1ccc(O[C@@H](c2ncco2)[C@H]2CCNC2)c(Cl)c1.O=C(O)C(F)(F)F [6-22], the “SERT pKi” value [1] is reported as “≧5.0” and the “NET pKi” value [2] is reported as “≧7.0”.
In the case of Cc1c(F)c(F)nc(O[C@@H](c2ccccc2)[C@H]2CCNC2)c1F.O=C(O)C(F)(F)F [14-4], the “SERT pKi” value [1] is reported as “≧7.0” and the “NET pKi” value [2] is reported as “≧5.0”.
In the case of Clc1cccc(O[C@@H](c2ccccc2)[C@H]2CCNC2)n1.O=C(O)C(F)(F)F [14-9], the “SERT pKi” value [1] is reported as “≧7.0” and the “NET pKi” value [2] is reported as “≧7.0”.
COc1cccc(F)c1O[C@@H](c1ncco1)[C@H]1CCNC1.O=C(O)C(F)(F)F [6-41] was tested, and the “SERT pKi” value [1] was “≧5.0” and the “NET pKi” value [2] was “≧7.0”.
Fc1cncc(C(Oc2c(F)ccc(F)c2Cl)C2CCNC2)c1 [Example 2-50, 3-[(S)-(2-Chloro-3,6-difluorophenoxy)-(S)-pyrrolidin-3-yl-methy1]-5-fluoropyridine] showed a Ki [1] of no more than 0.1 µM and a Ki [2] of no more than 10 µM.
For Clc1ncccc1O[C@H](c1ccccc1)[C@@H]1CCNC1.O=C(O)C(F)(F)F [15-5], the “SERT pKi” value [1] was “≧7.0” and the “NET pKi” value [2] was “≧7.0”.
For Cc1cccc(O[C@@H](c2ncco2)[C@H]2CCNC2)c1 [6-46], the Ki [1] was no more than 10 µM and the Ki [2] was no more than 10 µM.
In the case of c1ccc(C(Oc2cccc3ccccc23)C2CCNC2)cc1 (stereo not shown) [21-1], the Ki [1] is reported as no more than 0.1 µM and the Ki [2] is reported as no more than 0.1 µM.
For Fc1nc(OC(c2ccccc2)C2CCNC2)c(F)c(F)c1F (stereo not shown) [14-42], the “SERT pKi” value [1] was “≧5.0” and the “NET pKi” value [2] was “≧5.0”.
Clc1cc(Cl)cc(O[C@H](c2cncc(Cl)c2)[C@H]2CCNC2)c1 [Example 2-16, 3-Chloro-5-[(S)-(3,5-dichlorophenoxy)-(S)-pyrrolidin-3-yl-methyl]pyridine] was tested, and the Ki [1] was no more than 0.1 µM and the Ki [2] was no more than 0.1 µM.
In the case of CC(C)c1ccccc1O[C@@H](c1ncco1)[C@H]1CCNC1.O=C(O)C(F)(F)F [6-32], the “SERT pKi” value [1] is reported as “≧5.0” and the “NET pKi” value [2] is reported as “≧7.0”.
In the case of Clc1ccc(O[C@@H](c2ccccc2)C2CCNC2)c(Cl)n1 (stereo partly shown) [15-1], the Ki [1] is reported as no more than 0.1 µM and the Ki [2] is reported as no more than 0.1 µM.
For Fc1ccc(F)c(O[C@@H](c2cnccn2)[C@H]2CCNC2)c1Cl.O=C(O)C(F)(F)F [10-3], the “SERT pKi” value [1] was “≧5.0” and the “NET pKi” value [2] was “≧7.0”.
In the case of Cc1cc(Cl)ccc1O[C@@H](c1cnccn1)[C@H]1CCNC1.O=C(O)C(F)(F)F [10-5], the “SERT pKi” value [1] is reported as “≧7.0” and the “NET pKi” value [2] is reported as “≧7.0”.
In the case of Cc1ccc(Cl)c(O[C@H](c2ccncc2)[C@H]2CCNC2)c1Cl [Example 3-7, 4-[(S)-(2,6-Dichloro-3-methylphenoxy)-(S)-pyrrolidin-3-yl-methyl]pyridine], the Ki [1] is reported as no more than 0.1 µM and the Ki [2] is reported as no more than 0.1 µM.
FC(F)(F)c1ccccc1O[C@@H](c1ncco1)[C@H]1CCNC1 [6-17] was tested, and the Ki [1] was no more than 10 µM and the Ki [2] was no more than 0.1 µM.
Work on Cc1cc(Cl)cc(Cl)c1OC(c1cncc(Cl)c1)C1CCNC1 [Example 2-30, 3-Chloro-5-[(R)-(2,4-dichloro-6-methylphenoxy)-(S)-pyrrolidin-3-yl-methy1]-pyridine] yielded a Ki [1] of no more than 0.1 µM and a Ki [2] of no more than 10 µM.
In the case of Cc1ccccc1O[C@@H](c1nccs1)[C@H]1CCNC1 [Example 5-24], the “SERT pKi” value [1] is reported as “≧7.0” and the “NET pKi” value [2] is reported as “≧5.0”.
COc1ccc(O[C@@H](c2ccccc2)[C@H]2CCNC2)cn1.O=C(O)C(F)(F)F [15-31] was tested, and the “SERT pKi” value [1] was “≧7.0” and the “NET pKi” value [2] was “≧5.0”.
With COc1cc(F)c(O[C@@H](c2nccs2)[C@H]2CCNC2)c(F)c1 [Example 5-28] the “SERT pKi” value [1] was “≧7.0” and the “NET pKi” value [2] was “≧5.0”.
Fc1ccc(O[C@H](c2nccs2)[C@H]2CCNC2)cc1Cl [Example 5-31] was tested, and the “SERT pKi” value [1] was “≧7.0” and the “NET pKi” value [2] was “≧7.0”.
For Cc1cc(Cl)ccc1O[C@@H](c1nccs1)[C@H]1CCNC1 [Example 5-22], the “SERT pKi” value [1] was “≧7.0” and the “NET pKi” value [2] was “≧7.0”.
For COc1cccc(C(Oc2cccc3ccccc23)C2CCNC2)c1 (stereo not shown) [21-6], the Ki [1] was no more than 0.1 µM and the Ki [2] was no more than 0.1 µM.
For Fc1cc(Cl)cnc1O[C@@H](c1ccccc1)[C@H]1CCNC1.O=C(O)C(F)(F)F [14-28], the “SERT pKi” value [1] was “≧7.0” and the “NET pKi” value [2] was “≧5.0”.
In the case of Cc1ccccc1O[C@H](c1nccs1)[C@H]1CCNC1 [Example 5-25], the “SERT pKi” value [1] is reported as “≧7.0” and the “NET pKi” value [2] is reported as “≧7.0”.
With O=C(O)C(F)(F)F.c1ccc([C@H](Oc2cccnc2OC2CCCC2)[C@H]2CCNC2)cc1 [15-13] the “SERT pKi” value [1] was “≧7.0” and the “NET pKi” value [2] was “≧7.0”.
Work on Clc1cccc(C(Oc2cccc3ccccc23)C2CCNC2)c1 (stereo not shown) [21-5] yielded a Ki [1] of no more than 0.1 µM and a Ki [2] of no more than 0.1 µM.
For FC(F)(F)c1cc(Cl)ccc1O[C@@H](c1ncco1)[C@H]1CCNC1.O=C(O)C(F)(F)F [6-18], the “SERT pKi” value [1] was “≧7.0” and the “NET pKi” value [2] was “≧7.0”.
For Brc1cnc(O[C@@H](c2ccccc2)[C@H]2CCNC2)c(Br)c1.O=C(O)C(F)(F)F [14-13], the “SERT pKi” value [1] was “≧7.0” and the “NET pKi” value [2] was “≧7.0”.
Fc1cc(F)c(Cl)c(O[C@H](c2ncco2)[C@H]2CCNC2)c1Cl [6-10] gave a Ki [1] of no more than 0.1 µM and a Ki [2] of no more than 10 µM.
In the case of Cc1cc(Cl)cc(C)c1O[C@@H](c1ncco1)[C@H]1CCNC1.O=C(O)C(F)(F)F [6-15], the “SERT pKi” value [1] is reported as “≧7.0” and the “NET pKi” value [2] is reported as “≧5.0”.
Fc1cc(F)c(OC(c2nccs2)C2CCNC2)c(F)c1 [Example 5-6, 2-[(R)-((S)-Pyrrolidin-3-yl-(2,4,6-trifluorophenoxy)methyl]thiazole] gave a Ki [1] of no more than 10 µM and a Ki [2] of no more than 10 µM.
Fc1cncc([C@H](Oc2cccc3ccccc23)[C@H]2CCNC2)c1.O=C(O)C(F)(F)F [19-2] was tested, and the “SERT pKi” value [1] was “≧7.0” and the “NET pKi” value [2] was “≧7.0”.
With Clc1cc(-c2ccccc2)ccc1O[C@@H](c1ncco1)[C@H]1CCNC1.O=C(O)C(F)(F)F [6-25] the “SERT pKi” value [1] was “≧5.0” and the “NET pKi” value [2] was “≧7.0”.
Fc1cc(F)c(Cl)c(OC(c2nccs2)C2CCNC2)c1Cl [Example 5-9, 2-[((S)-(2,6-Dichloro-3,5-difluorophenoxy)-((S)-pyrrolidin-3-yl-methyl]thiazole] showed a Ki [1] of no more than 0.1 µM and a Ki [2] of no more than 0.1 µM.
Fc1cccnc1O[C@H](c1ccccc1)[C@@H]1CCNC1.O=C(O)C(F)(F)F [14-35] was tested, and the “SERT pKi” value [1] was “≧5.0” and the “NET pKi” value [2] was “≧7.0”.
Fc1ccc(O[C@@H](c2ccccc2)C2CCNC2)c2ccccc12 (stereo partly shown) [21-9] showed a Ki [1] of no more than 0.1 µM and a Ki [2] of no more than 0.1 µM.
Molecule Fc1cc(Cl)ccc1OC(c1nccs1)C1CCNC1 [Example 5-32, 2-[(R)-(4-Chloro-2-fluorophenoxy)-((S)-pyrrolidin-3-yl-methyl]thiazole] has a Ki [1] of no more than 0.1 µM and a Ki [2] of no more than 10 µM.
For COc1ccccc1O[C@H](c1cncc(Cl)c1)[C@H]1CCNC1 [Example 2-13, 3-Chloro-5-[(S)-(2-methoxyphenoxy)-(S)-pyrrolidin-3-yl-methyl]pyridine], the Ki [1] was no more than 10 µM and the Ki [2] was no more than 10 µM.
In the case of Cc1ccc(Cl)c(OC(c2cccnc2)[C@H]2CCNC2)c1Cl (stereo partly drawn) [Example 2-74, 3-[(S)-(2,6-Dichloro-3-methylphenoxy)-pyrrolidin-3-yl-methyl]pyridine], the Ki [1] is reported as no more than 0.1 µM and the Ki [2] is reported as no more than 0.1 µM.
Clc1ccc(O[C@@H](c2ccccc2)C2CCNC2)cn1 (stereo partly shown) [15-22] showed a Ki [1] of no more than 0.1 µM and a Ki [2] of no more than 10 µM.
With Fc1ccc(OC(c2nccs2)C2CCNC2)c(F)c1F [Example 5-1, 2-[(R)-((S)-Pyrrolidin-3-yl-(2,3,4-trifluorophenoxy)methyl]thiazole] the Ki [1] was no more than 0.1 µM and the Ki [2] was no more than 10 µM.
For Clc1ccccc1O[C@@H](c1ncco1)[C@H]1CCNC1 [6-19], the “SERT pKi” value [1] was “≧5.0” and the “NET pKi” value [2] was “≧7.0”.
